For two molecules, Substrate of transporter results are on record in US20210023012A1, “Solid Pharmaceutical Compositions for Treating HCV” (AbbVie Inc., priority 2019, published 2021).

The structures appear in SMILES notation.

In data set [1] the target is P-gp (Homo sapiens, UniProt P08183). In words: Substrate of transporter P-gp. It is filed as in vitro ADME.
The target of data set [2] is T1, BCRP (Homo sapiens, UniProt Q9UNQ0).
T1 sequence (Q9UNQ0 1-655): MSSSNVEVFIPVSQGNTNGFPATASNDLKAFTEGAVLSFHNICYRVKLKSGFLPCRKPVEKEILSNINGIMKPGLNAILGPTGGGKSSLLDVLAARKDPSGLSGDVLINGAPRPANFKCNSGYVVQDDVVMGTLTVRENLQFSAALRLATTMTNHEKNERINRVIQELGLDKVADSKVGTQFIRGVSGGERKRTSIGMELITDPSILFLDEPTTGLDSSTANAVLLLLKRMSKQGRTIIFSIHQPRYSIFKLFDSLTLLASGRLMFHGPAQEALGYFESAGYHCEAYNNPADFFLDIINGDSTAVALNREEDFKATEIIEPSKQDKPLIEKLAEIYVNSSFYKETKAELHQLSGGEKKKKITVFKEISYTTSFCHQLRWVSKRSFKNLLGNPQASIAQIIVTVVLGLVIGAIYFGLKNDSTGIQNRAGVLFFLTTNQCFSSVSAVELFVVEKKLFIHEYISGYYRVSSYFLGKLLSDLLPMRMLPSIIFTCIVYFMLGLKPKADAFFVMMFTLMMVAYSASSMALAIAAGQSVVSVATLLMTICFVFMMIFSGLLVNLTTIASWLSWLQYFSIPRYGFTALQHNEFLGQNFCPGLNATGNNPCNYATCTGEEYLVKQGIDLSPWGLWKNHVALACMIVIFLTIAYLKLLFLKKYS
In words: Substrate of transporter BCRP. Format: in vitro ADME.

P-gp, sequence (P08183 whole entry): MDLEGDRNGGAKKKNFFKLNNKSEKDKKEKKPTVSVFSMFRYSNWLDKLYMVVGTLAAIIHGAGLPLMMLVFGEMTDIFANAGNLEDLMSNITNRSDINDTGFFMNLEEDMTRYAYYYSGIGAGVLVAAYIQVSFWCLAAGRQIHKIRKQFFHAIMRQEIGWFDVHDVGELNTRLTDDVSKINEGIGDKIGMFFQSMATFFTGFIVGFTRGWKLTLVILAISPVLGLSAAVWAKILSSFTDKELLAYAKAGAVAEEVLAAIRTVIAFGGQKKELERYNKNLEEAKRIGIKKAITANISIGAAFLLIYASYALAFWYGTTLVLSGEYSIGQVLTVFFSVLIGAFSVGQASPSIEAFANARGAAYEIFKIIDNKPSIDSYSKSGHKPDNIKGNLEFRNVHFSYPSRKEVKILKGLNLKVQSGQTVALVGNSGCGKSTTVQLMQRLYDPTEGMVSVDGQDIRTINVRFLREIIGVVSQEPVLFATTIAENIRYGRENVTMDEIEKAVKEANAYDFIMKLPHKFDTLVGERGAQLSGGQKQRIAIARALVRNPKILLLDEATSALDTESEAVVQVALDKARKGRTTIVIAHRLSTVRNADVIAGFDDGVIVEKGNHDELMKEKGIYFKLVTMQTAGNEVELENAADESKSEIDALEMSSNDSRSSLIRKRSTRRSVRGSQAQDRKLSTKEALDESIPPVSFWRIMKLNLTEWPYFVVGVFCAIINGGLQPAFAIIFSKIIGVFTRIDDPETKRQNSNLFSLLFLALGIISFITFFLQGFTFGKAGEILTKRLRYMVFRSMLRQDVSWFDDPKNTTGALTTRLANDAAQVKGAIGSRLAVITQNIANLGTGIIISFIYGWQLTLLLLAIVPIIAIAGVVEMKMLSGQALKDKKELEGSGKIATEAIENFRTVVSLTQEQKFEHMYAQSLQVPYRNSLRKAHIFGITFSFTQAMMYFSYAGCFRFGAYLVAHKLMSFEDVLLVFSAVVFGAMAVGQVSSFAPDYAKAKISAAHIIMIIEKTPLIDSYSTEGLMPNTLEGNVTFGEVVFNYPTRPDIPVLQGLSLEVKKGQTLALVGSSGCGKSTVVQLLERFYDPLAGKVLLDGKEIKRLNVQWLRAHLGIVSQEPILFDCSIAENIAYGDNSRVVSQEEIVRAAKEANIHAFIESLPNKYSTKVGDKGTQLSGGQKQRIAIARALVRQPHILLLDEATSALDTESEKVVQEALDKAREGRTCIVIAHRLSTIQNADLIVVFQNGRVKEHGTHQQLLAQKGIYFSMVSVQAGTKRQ

As for `CC(C)(C)[C@@H]1NC(=O)O[C@@H]2CCC[C@H]2OC/C=C/C(F)(F)c2nc3ccccc3nc2O[C@@H]2C[C@@H](C(=O)N[C@]3(C(=O)NS(=O)(=O)C4(C)CC4)C[C@H]3C(F)F)N(C2)C1=O` [Compound 1], the Substrate of transporter entry in data set [1] is given as “P-gp,”. Take `COC(=O)N[C@H](C(=O)N1CCC[C@H]1c1nc2cc([C@H]3CC[C@H](c4cc5nc([C@@H]6CCCN6C(=O)[C@@H](NC(=O)OC)[C@@H](C)OC)[nH]c5cc4F)N3c3cc(F)c(N4CCC(c5ccc(F)cc5)CC4)c(F)c3)c(F)cc2[nH]1)[C@@H](C)OC` [Compound 2]: the Substrate of transporter result in data set [2] is “not excluded”.
